This is an account of results in ChEMBL document CHEMBL5321281, “Synthesis and Biological Evaluation of Heterocyclic Ring-Fused 20(S)-Protopanaxadiol Derivatives as Potent Antiosteoporosis Agents” (J Med Chem, 2023).

SMILES strings stand for the structures. A value given as a limit tells only on which side of the number the result lay.

In data set [1] the test system is BMMC. As to the kind of experiment: Anti-osteoclastogenic activity in C57/BL6 mouse BMMC cells assessed as inhibition of RANKL-induced osteoclast differentiation at 1 uM incubated for 5 to 7 days in presence of M-CSF by TRAP staining based microscopic analysis relative to control. In kind it is functional. The following applies: time 5-7 day.
Data set [2] relates to BMMC. Nature of the data set: Anti-osteoclastogenic activity in C57/BL6 mouse BMMC cells assessed as inhibition of RANKL-induced osteoclast differentiation at 5 uM incubated for 5 to 7 days in presence of M-CSF by TRAP staining based microscopic analysis relative to control. The note with it: time 5-7 day. Format: functional.
Data set [3] concerns BMMC. Nature of the data set: Cytotoxicity against C57/BL6 mouse BMMC cells assessed as reduction in cell viability at 10 uM incubated for 24 hrs by CCK-8 assay. Format: toxicity, cell-based.
Data set [4] relates to BMMC. As to the kind of experiment: Anti-osteoclastogenic activity in C57/BL6 mouse BMMC cells assessed as inhibition of RANKL-induced osteoclast differentiation at 0.1 uM incubated for 5 to 7 days in presence of M-CSF by TRAP staining based microscopic analysis relative to control. Format: functional. The note with it: time 5-7 day.
In data set [5] the test system is BMMC. As to the kind of experiment: Anti-osteoclastogenic activity in C57/BL6 mouse BMMC cells assessed as inhibition of RANKL-induced osteoclast differentiation at 0.01 uM incubated for 5 to 7 days in presence of M-CSF by TRAP staining based microscopic analysis relative to control. Format: functional. The note with it: time 5-7 day.
Data set [6] has as its system BMMC. As to the kind of experiment: Anti-osteoclastogenic activity in C57/BL6 mouse BMMC cells assessed as inhibition of RANKL-induced osteoclast differentiation incubated for 5 to 7 days in presence of M-CSF by TRAP staining based microscopic analysis relative to control. Format: functional, cell-based.

As for `CC(C)=CCC[C@](C)(O)[C@H]1CC[C@]2(C)[C@@H]1[C@H](O)C[C@@H]1[C@@]3(C)Cc4nonc4C(C)(C)[C@@H]3CC[C@]12C`, the inhibition (usually how much of the control response was suppressed) at 1 µM with BMMC [1] was found to be 18.8%. For the same compound, the inhibition at 5 µM in the data set on BMMC [2] stood at 64.2%. Besides, the Activity entry in the data set with BMMC [3] was “>= 100%”.

Turning to `CC(C)=CCC[C@](C)(O)[C@H]1CC[C@]2(C)[C@@H]1[C@H](O)C[C@@H]1[C@@]3(C)Cc4cnn(-c5ccccc5)c4C(C)(C)[C@@H]3CC[C@]12C`, the inhibition at 1 µM with BMMC [1] worked out at 0%. The inhibition at 5 µM in the data set on BMMC [2] came out at 12.9%. The Activity result in the data set on BMMC [3] is reported as “>= 100%”.

As for `CC(C)=CCC[C@](C)(O)[C@H]1CC[C@]2(C)[C@@H]1[C@H](O)C[C@@H]1[C@@]3(C)Cc4cn[nH]c4C(C)(C)[C@@H]3CC[C@]12C`, in the data set on BMMC [1], the inhibition at 1 µM was found to be 41.2%. In addition, the inhibition at 5 µM in the data set with BMMC [2] was found to be 84.8%. The Activity result in the data set on BMMC [3] is recorded as “>= 100%”.

In the case of `CC(C)=CCC[C@](C)(O)[C@H]1CC[C@]2(C)[C@@H]1[C@H](O)C[C@@H]1[C@@]3(C)Cc4cnc(-c5ccccc5)nc4C(C)(C)[C@@H]3CC[C@]12C`, the inhibition at 1 µM in the data set with BMMC [1] was 45.5%. In the data set on BMMC [3], the Activity entry was “>= 100%”. Also, in the data set on BMMC [4], the inhibition at 0.1 µM was 0%.

Regarding `CC(C)=CCC[C@](C)(O)[C@H]1CC[C@]2(C)[C@@H]1C(=O)C[C@@H]1[C@@]3(C)Cc4cnc(C)nc4C(C)(C)[C@@H]3CC[C@]12C`, the Activity result in the data set with BMMC [3] is “>= 100%”. In addition, the inhibition at 0.1 µM in the data set on BMMC [4] worked out at 75.8%. Also, the inhibition at 0.01 µM with BMMC [5] amounted to 8.68%.

As for `CC(C)=CCC[C@](C)(O)[C@H]1CC[C@]2(C)[C@@H]1[C@H](O)C[C@@H]1[C@@]3(C)Cc4cnoc4C(C)(C)[C@@H]3CC[C@]12C`, in the data set on BMMC [1], the inhibition at 1 µM came out at 3.2%. The inhibition at 5 µM in the data set with BMMC [2] worked out at 71.5%. Moreover, the Activity entry in the data set on BMMC [3] is reported as “>= 100%”.

With `CC(=O)O[C@@H]1C[C@@H]2[C@@]3(C)Cc4cnc(C)nc4C(C)(C)[C@@H]3CC[C@@]2(C)[C@]2(C)CC[C@H]([C@@](C)(O)CCC=C(C)C)[C@@H]12`, in the data set on BMMC [3], the Activity entry is “>= 100%”. The inhibition at 0.1 µM with BMMC [4] amounted to 62.2%. Also, the inhibition at 0.01 µM in the data set with BMMC [5] is 6.68%.

On to `CC(C)=CCC[C@](C)(O)[C@H]1CC[C@]2(C)[C@@H]1[C@H](O)C[C@@H]1[C@@]3(C)Cc4cnc(C)nc4C(C)(C)[C@@H]3CC[C@]12C`, for which the inhibition at 1 µM in the data set with BMMC [1] was 100%. Further, the Activity entry with BMMC [3] is “>= 100%”. For the same compound, the inhibition at 0.1 µM in the data set on BMMC [4] was 96.8%. Moreover, the inhibition at 0.01 µM with BMMC [5] stood at 34.5%.

Regarding `CC(C)=CCC[C@](C)(O)[C@H]1CC[C@]2(C)[C@@H]1[C@H](O)C[C@@H]1[C@@]3(C)Cc4cncnc4C(C)(C)[C@@H]3CC[C@]12C`, the inhibition at 1 µM with BMMC [1] was 95.3%. Further, the inhibition at 5 µM with BMMC [2] was 100%. The Activity result in the data set on BMMC [3] is “>= 100%”. The inhibition at 0.1 µM in the data set on BMMC [4] came out at 51.9%.

For the compound `COc1ncc2c(n1)C(C)(C)[C@@H]1CC[C@]3(C)[C@H](C[C@@H](O)[C@@H]4[C@@H]([C@@](C)(O)CCC=C(C)C)CC[C@]43C)[C@@]1(C)C2`, the inhibition at 1 µM in the data set with BMMC [1] worked out at 93.7%. In addition, the Activity entry with BMMC [3] is on record as “>= 100%”. Also, in the data set on BMMC [4], the inhibition at 0.1 µM is 52.6%.

For the compound `CCOc1ncc2c(n1)C(C)(C)[C@@H]1CC[C@]3(C)[C@H](C[C@@H](O)[C@@H]4[C@@H]([C@@](C)(O)CCC=C(C)C)CC[C@]43C)[C@@]1(C)C2`, in the data set with BMMC [1], the inhibition at 1 µM stood at 94.1%. The Activity in the data set with BMMC [3] is reported as 86.9%. In addition, the inhibition at 0.1 µM in the data set on BMMC [4] turned out to be 45.7%.

Regarding `CC(C)=CCC[C@](C)(O)[C@H]1CC[C@]2(C)[C@@H]1[C@@H](O)C[C@@H]1[C@@]3(C)Cc4cnc(C)nc4C(C)(C)[C@@H]3CC[C@]12C`, in the data set on BMMC [3], the Activity result is reported as “>= 100%”. The inhibition at 0.1 µM in the data set on BMMC [4] worked out at 84.4%. Besides, the inhibition at 0.01 µM in the data set on BMMC [5] worked out at 0%.

`CC(C)=CCC[C@](C)(O)[C@H]1CC[C@]2(C)[C@@H]1[C@H](O)C[C@@H]1[C@@]3(C)Cc4nccnc4C(C)(C)[C@@H]3CC[C@]12C`: in the data set with BMMC [1], the inhibition at 1 µM stood at 43.7%. In the data set with BMMC [2], the inhibition at 5 µM came out at 100%. Further, the Activity result with BMMC [3] is given as “>= 100%”.

As for `CC(C)=CCC[C@](C)(O)[C@H]1CC[C@]2(C)[C@@H]1[C@H](O)C[C@@H]1[C@@]3(C)CC[C@H](O)C(C)(C)[C@@H]3CC[C@]12C`, in the data set with BMMC [1], the inhibition at 1 µM was found to be 10.2%. Further, in the data set with BMMC [2], the inhibition at 5 µM is 63.9%. In addition, the Activity entry in the data set with BMMC [3] is recorded as “>= 100%”. Also, the IC50 (in general, the point on the concentration scale where inhibition reaches its midpoint) in the data set with BMMC [6] is 11.8 µM.

Consider `CC(C)=CC/C=C(\C)[C@H]1CC[C@]2(C)[C@@H]1[C@H](O)C[C@@H]1[C@@]3(C)Cc4cnc(C)nc4C(C)(C)[C@@H]3CC[C@]12C`, for which the Activity entry in the data set with BMMC [3] is on record as “>= 100%”. Further, in the data set on BMMC [4], the inhibition at 0.1 µM turned out to be 96.8%. The inhibition at 0.01 µM in the data set on BMMC [5] is 27.4%.

Consider `CCc1ncc2c(n1)C(C)(C)[C@@H]1CC[C@]3(C)[C@H](C[C@@H](O)[C@@H]4[C@@H]([C@@](C)(O)CCC=C(C)C)CC[C@]43C)[C@@]1(C)C2`, for which, in the data set on BMMC [1], the inhibition at 1 µM was 100%. Moreover, the Activity result with BMMC [3] was “>= 100%”. Besides, the inhibition at 0.1 µM in the data set with BMMC [4] came out at 90.4%.

Turning to `CC(C)=CCC[C@](C)(O)[C@H]1CC[C@]2(C)[C@@H]1/C(=N/O)C[C@@H]1[C@@]3(C)Cc4cnc(C)nc4C(C)(C)[C@@H]3CC[C@]12C`, in the data set on BMMC [3], the Activity entry was “>= 100%”. In addition, in the data set with BMMC [4], the inhibition at 0.1 µM came to 61.1%. For the same compound, the inhibition at 0.01 µM with BMMC [5] was 0%.

Consider `CC(C)=CCC[C@](C)(O)[C@H]1CC[C@]2(C)[C@@H]1[C@H](O)C[C@@H]1[C@@]3(C)Cc4cnc(N)nc4C(C)(C)[C@@H]3CC[C@]12C`, for which the inhibition at 1 µM in the data set on BMMC [1] is 100%. In the data set on BMMC [3], the Activity result was “>= 100%”. Moreover, the inhibition at 0.1 µM in the data set with BMMC [4] was 51.2%.

For `Cc1ncc2c(n1)C(C)(C)[C@@H]1CC[C@]3(C)[C@H](C[C@@H](O)[C@@H]4[C@@H]([C@@](C)(O)CCCC(C)C)CC[C@]43C)[C@@]1(C)C2`, in the data set with BMMC [3], the Activity result is listed as “>= 100%”. Moreover, in the data set on BMMC [4], the inhibition at 0.1 µM turned out to be 96%. For the same compound, the inhibition at 0.01 µM in the data set with BMMC [5] is 9.2%.
